Results published in patent US6242444A, “Compounds and pharmaceutical compositions containing the same” (The Jordanian Pharmaceutical Manufacturing and Medical …, priority 1999, dated 2001).

Columns and labels:
Assay type in all cases: in vivo, rat
male rats = assay: Penile erection study in male rats after oral administration (responding rats, ED50, erection episodes, penile erection index); details: for responding rats, # / responding rats, %: 10 rats tested, 2 h observation; for copulation mounting behaviour: 0.0781-0.625 mg/kg
Method: The purpose of this study was to compare the biological activity of compound 7a with that of sildenafil. In particular, the respective ED50 -value (ED=effective dose), erection episodes and penile erection indices of said compounds in the treatment of male rats were determined. The penile erection index is an established means of determining the erection promoting properties of a substance (see e.g. Ang, H. H., Sim, M. K., Pharm. Sci., 3, 117-119 (1997) and references cited therein).
In these experiments, the compounds 7a and sildenafil were administered to male rats orally. The doses used for both drugs were 0.0781, 0.1562, 0.3125 and 0.625 mg/kg body weight. Sildenafil was dissolved in distilled water, whereas 7a was dissolved in 1% HCl solution (aq). Control animals were administered with the vehicles only, i.e. distilled water or the 1% HCl solution. During the experiments, the rats were placed in glass cages for observation and had access to food and water. During 2 h after administration of the investigated compounds, the penile erection of the rats was monitored.

rats = assay: Preliminary toxicity studies in rats
Method: (§1) Moreover, according to preliminary toxicity studies in rats, the compound 7a is tolerated up to a dose of about […] body weight without any detrimental effects. […] Thus, high doses of 7a provide a particularly efficient means for treatment of erectile dysfunction.

[1] = Preliminary toxicity studies in rats; details: rat, in vivo, read-out: tolerated dose without any detrimental effects
Method: as §1

Row | Compound | responding rats, # (male rats; dose 0.0781 mg/kg oral) | responding rats, % (male rats; dose 0.0781 mg/kg oral) | responding rats, # (male rats; dose 0.1562 mg/kg oral) | responding rats, % (male rats; dose 0.1562 mg/kg oral) | responding rats, # (male rats; dose 0.3125 mg/kg oral) | responding rats, % (male rats; dose 0.3125 mg/kg oral) | responding rats, # (male rats; dose 0.6250 mg/kg oral) | responding rats, % (male rats; dose 0.6250 mg/kg oral) | copulation mounting behaviour (male rats; male rats, oral) | number of erection episodes and penile erection indices (in words) (male rats; male rats, oral, 7a vs sildenafil, FIGS. 1 and 2) | ED50 of 7a compared with sildenafil (in words) (male rats; male rats, oral, 7a vs sildenafil, 95% confidence interval) | toxicity and side-effects (in words) (rats) | NOAEL [1]
1 | CCCc1nn(C)c2c(=O)[nH]c(-c3cc(S(=O)(=O)N4CCN(C)CC4)ccc3OCC)nc12 [Sildenafil, reference compound] | 3 # | 30% | 3 # | 30% | 5 # | 50% | 7 # | 70% | no copulation mounting behaviour was observed |  |  |  | 
2 | CCCc1nn(C)c2c(=O)[nH]c(-c3cc(S(=O)(=O)N4CCN(C)CC4)cc4c3OCC4)nc12 [Compound 7a, 5-[2,3-dihydro-5-(4-methylpiperazin-1-ylsulfonyl)-7-benzofuryl]-1-methyl-3-propyl-6,7-dihydro-1H-pyrazolo[4,3-d]pyrimidin-7-one] | 3 # | 30% | 4 # | 40% | 4 # | 40% | 8 # | 80% | no copulation mounting behaviour was observed | superior to sildenafil, especially at higher doses | lower than that of sildenafil | completely non-toxic and free from undesirable side-effects | ~0.35 mg/kg
